Results taken from PMC7316994, “In Vitro Pharmacological Profile of a New Small Molecule Bradykinin B2 Receptor Antagonist” (Frontiers in Pharmacology, 2020).

What was measured:
[1] = tested on: Thyroid hormone; assay: radioligand binding (Table S2); conditions: [125I] Triiodothyronine, Rat liver
[2] = target: T1, rat B2 receptor (Rattus norvegicus, UniProt P25023); assay: Ca^2+ mobilization assay, HEK293T cells; assay type: cell-based; conditions: BK at EC80 4.32 nM
T1 construct: host or cells: HEK293T cells
T1 sequence (P25023 1-396): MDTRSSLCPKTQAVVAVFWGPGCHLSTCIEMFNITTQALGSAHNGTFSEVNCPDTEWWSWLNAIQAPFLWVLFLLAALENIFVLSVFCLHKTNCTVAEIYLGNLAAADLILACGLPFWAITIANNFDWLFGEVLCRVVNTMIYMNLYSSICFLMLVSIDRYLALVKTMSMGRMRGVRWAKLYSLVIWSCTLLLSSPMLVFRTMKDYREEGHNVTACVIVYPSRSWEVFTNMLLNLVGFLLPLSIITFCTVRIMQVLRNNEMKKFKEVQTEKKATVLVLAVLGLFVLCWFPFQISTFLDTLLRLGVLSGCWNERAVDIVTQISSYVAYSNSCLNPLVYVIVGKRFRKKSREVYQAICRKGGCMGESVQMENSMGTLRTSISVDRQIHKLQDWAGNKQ

[3] = target: T2, Prostanoid EP2 (Homo sapiens, UniProt P43116); assay: radioligand binding (Table S2); conditions: [3H] Prostaglandin E2, Human recombinant HEK-293 cells
T2 construct: host or cells: HEK-293 cells

[4] = target: T3, IRK (InsR) (Homo sapiens, UniProt P06213); assay: enzyme assay (Table S2); assay type: biochemical; conditions: ATP + Ulight-PolyGAT (50 nM), LANCE
T3 construct: Eurofins (assay provider)

[5] = target: T4, Neuropeptide Y1 (Homo sapiens, UniProt P25929); assay: radioligand binding (Table S2); conditions: [125I] Peptide YY, SK-N-MC cells (endogenous)
T4 construct: (endogenous); host or cells: SK-N-MC cells

[6] = target: Apelin APJ (Homo sapiens, UniProt P35414); assay: radioligand binding (Table S2); conditions: [125I] [Glp65, Nle75, Tyr77]-apelin-13, Human recombinant CHO cells
[7] = target: Muscarinic M2 (Homo sapiens, UniProt P08172); assay: radioligand binding (Table S2); conditions: read-out: % Inhibition @ 10 µM
[8] = target: T5, Histamine H1 (Homo sapiens, UniProt P35367); assay: radioligand binding (Table S2); conditions: [3H] Pyrilamine, Human recombinant HEK-293 cells
T5 construct: host or cells: HEK-293 cells

[9] = target: Cholecystokinin CCK1 (Homo sapiens, UniProt P32238); assay: radioligand binding (Table S2); conditions: [125I] CCK-8s, Human recombinant CHO cells
[10] = target: Angiotensine AT2 (Homo sapiens, UniProt P50052); assay: radioligand binding (Table S2); conditions: read-out: % Inhibition @ 10 µM
[11] = target: T6, Adenosine A3 (Homo sapiens, UniProt P0DMS8); assay: functional assay, cAMP HTRF, CHO cells (Table S2); assay type: cell-based; design: host or cells: CHO cells
T6 sequence (P0DMS8 1-318): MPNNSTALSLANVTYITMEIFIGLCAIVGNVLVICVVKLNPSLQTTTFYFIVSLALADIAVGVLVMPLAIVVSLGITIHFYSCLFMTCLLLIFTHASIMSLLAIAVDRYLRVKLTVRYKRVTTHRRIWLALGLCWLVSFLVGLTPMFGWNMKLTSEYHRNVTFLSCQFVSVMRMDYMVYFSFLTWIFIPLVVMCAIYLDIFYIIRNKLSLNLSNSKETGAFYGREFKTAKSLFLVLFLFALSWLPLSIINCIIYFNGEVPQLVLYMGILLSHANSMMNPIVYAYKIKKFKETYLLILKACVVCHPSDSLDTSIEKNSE

[12] = target: T7, Orexin OX2 (Homo sapiens, UniProt O43614); assay: radioligand binding (Table S2); conditions: [125I] Orexin A, Human recombinant HEK-293 cells
T7 construct: host or cells: HEK-293 cells

[13] = tested on: panel of G protein-coupled receptors (GPCRs), ion channels, enzymes and transporters
[14] = target: Muscarinic M1 (Homo sapiens, UniProt P11229); assay: radioligand binding (Table S2); conditions: read-out: % Inhibition @ 10 µM
[15] = target: T8, Thyrotropin-releasing hormone TRH1 (Homo sapiens, UniProt P34981); assay: radioligand binding (Table S2); conditions: [3H] Me-TRH, Human recombinant CHO cells
T8 construct: host or cells: CHO cells

[16] = target: Neurotensin NT1 (Homo sapiens, UniProt P30989); assay: radioligand binding (Table S2); conditions: [125I] Neurotensin, Human recombinant HEK-293 cells
[17] = target: T9, Corticotropin-releasing factor CRF1 (Homo sapiens, UniProt P34998); assay: functional assay, cAMP HTRF, CHO cells (Table S2); assay type: cell-based
T9 construct: expressed in transfected cells; host or cells: CHO cells
T9 sequence (P34998 24-415): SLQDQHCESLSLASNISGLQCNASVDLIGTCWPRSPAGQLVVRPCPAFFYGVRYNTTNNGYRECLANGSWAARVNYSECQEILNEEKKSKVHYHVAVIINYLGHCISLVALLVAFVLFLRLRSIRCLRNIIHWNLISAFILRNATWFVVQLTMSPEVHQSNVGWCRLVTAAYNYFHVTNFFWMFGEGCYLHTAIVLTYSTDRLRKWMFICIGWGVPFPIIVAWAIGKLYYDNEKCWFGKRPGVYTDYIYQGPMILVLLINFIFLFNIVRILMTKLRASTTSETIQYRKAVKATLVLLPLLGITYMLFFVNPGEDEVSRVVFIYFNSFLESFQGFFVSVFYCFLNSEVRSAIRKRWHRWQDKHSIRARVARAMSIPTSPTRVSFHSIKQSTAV

[18] = target: T10, Prostanoid FP (Homo sapiens, UniProt P43088); assay: radioligand binding (Table S2); conditions: [3H] Prostaglandin F2α, Human recombinant HEK-293 cells
T10 construct: host or cells: HEK-293 cells

[19] = target: T11, Dopamine D3 (Homo sapiens, UniProt P35462); assay: radioligand binding (Table S2); conditions: [3H] Methylspiperone, Human recombinant CHO cells
T11 construct: host or cells: CHO cells

[20] = target: Adenosine A2B (Homo sapiens, UniProt P29275); assay: radioligand binding (Table S2); conditions: read-out: % Inhibition @ 10 µM
Adenosine A2B, sequence (P29275 whole entry): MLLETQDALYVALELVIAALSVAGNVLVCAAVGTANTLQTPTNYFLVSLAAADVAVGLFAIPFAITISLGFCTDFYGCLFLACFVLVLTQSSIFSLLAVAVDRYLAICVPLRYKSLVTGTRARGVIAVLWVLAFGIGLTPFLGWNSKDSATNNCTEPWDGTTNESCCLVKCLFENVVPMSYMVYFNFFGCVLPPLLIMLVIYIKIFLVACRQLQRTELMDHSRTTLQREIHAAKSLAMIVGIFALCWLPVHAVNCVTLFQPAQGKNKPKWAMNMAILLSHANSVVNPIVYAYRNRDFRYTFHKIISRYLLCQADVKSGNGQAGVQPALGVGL

T3 sequence (P06213 28-1382): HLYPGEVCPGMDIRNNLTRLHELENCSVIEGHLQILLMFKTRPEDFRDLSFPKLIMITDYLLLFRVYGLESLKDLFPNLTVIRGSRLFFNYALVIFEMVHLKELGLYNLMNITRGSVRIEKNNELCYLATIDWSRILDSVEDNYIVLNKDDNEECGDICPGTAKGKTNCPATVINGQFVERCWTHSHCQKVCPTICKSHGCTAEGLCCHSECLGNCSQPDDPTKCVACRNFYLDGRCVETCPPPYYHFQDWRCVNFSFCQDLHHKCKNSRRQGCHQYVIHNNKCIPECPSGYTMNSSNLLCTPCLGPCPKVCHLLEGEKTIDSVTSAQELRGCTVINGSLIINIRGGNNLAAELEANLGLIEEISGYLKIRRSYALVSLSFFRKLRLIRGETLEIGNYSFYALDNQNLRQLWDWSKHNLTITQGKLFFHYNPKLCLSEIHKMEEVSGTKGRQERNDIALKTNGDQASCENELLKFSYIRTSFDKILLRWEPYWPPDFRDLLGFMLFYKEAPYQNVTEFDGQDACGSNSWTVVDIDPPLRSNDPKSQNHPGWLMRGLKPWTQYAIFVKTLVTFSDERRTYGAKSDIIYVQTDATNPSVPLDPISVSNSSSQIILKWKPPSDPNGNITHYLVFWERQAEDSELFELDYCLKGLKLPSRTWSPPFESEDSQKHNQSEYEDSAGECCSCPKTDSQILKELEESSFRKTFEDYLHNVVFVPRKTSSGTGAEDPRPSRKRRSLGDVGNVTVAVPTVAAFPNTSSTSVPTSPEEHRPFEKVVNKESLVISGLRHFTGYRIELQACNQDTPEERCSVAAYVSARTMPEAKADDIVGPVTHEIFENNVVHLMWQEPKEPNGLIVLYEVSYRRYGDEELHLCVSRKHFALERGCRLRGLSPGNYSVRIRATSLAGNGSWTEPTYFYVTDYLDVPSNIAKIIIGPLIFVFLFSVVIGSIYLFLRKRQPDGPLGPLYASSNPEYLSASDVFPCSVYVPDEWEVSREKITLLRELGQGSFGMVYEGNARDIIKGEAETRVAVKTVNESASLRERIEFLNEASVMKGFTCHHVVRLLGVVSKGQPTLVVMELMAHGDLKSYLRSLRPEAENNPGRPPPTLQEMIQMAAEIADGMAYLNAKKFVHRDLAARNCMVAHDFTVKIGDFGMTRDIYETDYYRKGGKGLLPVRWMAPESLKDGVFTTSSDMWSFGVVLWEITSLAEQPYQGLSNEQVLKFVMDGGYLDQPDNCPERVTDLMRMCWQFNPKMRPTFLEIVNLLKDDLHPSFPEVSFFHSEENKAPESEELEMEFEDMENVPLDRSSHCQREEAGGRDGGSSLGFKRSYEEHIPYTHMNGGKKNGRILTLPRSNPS
T10 sequence (P43088 whole entry): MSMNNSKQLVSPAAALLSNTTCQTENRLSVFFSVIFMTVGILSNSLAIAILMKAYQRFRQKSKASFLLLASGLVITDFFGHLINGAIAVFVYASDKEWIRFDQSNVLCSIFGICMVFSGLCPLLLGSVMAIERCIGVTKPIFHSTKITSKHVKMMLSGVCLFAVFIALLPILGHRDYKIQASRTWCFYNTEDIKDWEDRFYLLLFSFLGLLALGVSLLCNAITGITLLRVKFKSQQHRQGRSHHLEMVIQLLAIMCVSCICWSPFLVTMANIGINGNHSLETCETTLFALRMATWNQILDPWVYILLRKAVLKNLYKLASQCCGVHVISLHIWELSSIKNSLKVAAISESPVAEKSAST
T7 sequence (O43614 whole entry): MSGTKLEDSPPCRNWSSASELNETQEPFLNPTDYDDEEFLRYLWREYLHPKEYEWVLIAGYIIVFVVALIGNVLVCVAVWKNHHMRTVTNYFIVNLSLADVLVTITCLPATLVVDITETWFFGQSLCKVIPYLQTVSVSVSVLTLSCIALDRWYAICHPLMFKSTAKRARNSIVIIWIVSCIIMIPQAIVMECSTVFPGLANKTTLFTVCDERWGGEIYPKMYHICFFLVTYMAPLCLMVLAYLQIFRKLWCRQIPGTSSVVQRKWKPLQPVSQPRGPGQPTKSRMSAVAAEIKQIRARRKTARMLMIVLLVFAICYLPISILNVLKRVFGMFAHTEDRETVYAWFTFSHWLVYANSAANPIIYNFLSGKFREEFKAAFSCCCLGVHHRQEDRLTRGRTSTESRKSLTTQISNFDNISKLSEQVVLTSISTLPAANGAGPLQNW
T4 sequence (P25929 whole entry): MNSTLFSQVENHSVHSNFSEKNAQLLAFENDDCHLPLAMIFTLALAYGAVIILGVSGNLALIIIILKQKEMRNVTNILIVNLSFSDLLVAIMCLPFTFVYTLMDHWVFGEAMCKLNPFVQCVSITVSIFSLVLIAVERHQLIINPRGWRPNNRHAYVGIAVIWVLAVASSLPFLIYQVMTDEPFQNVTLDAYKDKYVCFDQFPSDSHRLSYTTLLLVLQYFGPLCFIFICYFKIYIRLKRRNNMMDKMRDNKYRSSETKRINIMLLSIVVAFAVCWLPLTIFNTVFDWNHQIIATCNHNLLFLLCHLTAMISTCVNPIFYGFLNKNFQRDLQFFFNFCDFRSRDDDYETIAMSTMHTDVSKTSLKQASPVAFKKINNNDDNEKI
Apelin APJ, sequence (P35414 whole entry): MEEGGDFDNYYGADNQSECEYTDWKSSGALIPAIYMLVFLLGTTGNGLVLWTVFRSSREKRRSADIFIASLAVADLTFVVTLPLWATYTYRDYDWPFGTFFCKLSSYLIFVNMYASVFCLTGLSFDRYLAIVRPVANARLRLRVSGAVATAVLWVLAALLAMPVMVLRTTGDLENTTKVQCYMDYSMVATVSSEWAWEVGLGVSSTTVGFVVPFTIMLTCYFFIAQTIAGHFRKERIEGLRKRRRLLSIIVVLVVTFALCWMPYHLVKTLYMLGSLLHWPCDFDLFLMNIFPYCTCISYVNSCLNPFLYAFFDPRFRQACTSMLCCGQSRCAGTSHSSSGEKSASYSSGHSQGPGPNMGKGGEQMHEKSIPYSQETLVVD
Muscarinic M2, sequence (P08172 whole entry): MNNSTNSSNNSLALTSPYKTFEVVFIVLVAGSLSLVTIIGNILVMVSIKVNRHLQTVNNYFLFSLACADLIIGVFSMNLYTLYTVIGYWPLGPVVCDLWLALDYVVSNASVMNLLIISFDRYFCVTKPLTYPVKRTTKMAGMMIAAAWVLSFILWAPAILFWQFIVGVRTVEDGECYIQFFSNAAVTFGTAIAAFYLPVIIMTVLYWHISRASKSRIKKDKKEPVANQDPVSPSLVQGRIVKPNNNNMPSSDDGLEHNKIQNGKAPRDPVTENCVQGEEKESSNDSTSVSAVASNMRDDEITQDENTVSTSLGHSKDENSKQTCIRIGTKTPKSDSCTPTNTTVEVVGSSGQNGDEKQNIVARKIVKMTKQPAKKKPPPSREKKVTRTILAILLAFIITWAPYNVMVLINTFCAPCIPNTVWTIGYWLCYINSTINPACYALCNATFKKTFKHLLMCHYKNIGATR
Neurotensin NT1, sequence (P30989 whole entry): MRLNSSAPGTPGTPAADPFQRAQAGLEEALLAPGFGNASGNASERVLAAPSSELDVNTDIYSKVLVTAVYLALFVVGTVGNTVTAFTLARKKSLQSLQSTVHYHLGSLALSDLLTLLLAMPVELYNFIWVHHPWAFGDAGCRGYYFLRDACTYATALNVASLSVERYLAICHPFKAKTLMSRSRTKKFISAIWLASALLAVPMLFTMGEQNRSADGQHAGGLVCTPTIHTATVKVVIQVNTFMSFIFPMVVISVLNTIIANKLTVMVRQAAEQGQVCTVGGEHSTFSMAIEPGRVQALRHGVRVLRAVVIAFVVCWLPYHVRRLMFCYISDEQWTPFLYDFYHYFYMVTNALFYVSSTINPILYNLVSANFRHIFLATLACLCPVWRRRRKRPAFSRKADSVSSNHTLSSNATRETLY
Muscarinic M1, sequence (P11229 whole entry): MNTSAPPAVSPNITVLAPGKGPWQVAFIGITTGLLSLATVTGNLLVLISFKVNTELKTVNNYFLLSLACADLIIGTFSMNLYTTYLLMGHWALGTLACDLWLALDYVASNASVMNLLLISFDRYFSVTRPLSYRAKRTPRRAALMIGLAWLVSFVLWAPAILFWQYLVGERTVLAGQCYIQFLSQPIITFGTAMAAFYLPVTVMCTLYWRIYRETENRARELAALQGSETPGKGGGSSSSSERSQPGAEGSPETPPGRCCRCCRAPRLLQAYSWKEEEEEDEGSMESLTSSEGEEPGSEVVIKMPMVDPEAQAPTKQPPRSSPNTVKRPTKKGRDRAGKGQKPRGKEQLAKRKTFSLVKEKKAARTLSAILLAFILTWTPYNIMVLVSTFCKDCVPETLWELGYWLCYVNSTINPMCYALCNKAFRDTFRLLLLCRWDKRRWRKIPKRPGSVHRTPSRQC
T2 sequence (P43116 whole entry): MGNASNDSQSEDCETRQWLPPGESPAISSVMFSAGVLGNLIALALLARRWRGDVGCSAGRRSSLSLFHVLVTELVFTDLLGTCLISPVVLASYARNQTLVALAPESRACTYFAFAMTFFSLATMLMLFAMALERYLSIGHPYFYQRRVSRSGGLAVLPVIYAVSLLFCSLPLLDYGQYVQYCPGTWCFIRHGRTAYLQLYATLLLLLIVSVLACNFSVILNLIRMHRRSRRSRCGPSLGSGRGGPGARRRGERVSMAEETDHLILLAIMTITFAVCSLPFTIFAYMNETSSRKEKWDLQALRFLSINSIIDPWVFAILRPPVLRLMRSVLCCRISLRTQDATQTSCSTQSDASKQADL

For `Cc1cc(-c2ncnn2C)c2cccc(OCc3c(Cl)cc(F)cc3[C@H](C)NC(=O)COC(F)F)c2n1` [Compound 3, (S)-N-(1-(3-chloro-5-fluoro-2-((2-methyl-4-(1-methyl-1H-1,2,4-triazol-5-yl)quinolin-8-yloxy)methyl)phenyl)ethyl)-2-(difluoromethoxy)acetamide], the “% Inhibition @ 10 µM” value [1] was 6.4%, the IC50 [2] was 1030 nM and the Kb [2] was 147 nM. The inhibition at 10 µM [3] was 12%, the inhibition at 10 µM [4] was -17.3% and the inhibition at 10 µM [5] was -2.6%. It also gave an inhibition at 10 µM [6] of -0.4%, an inhibition at 10 µM [7] of -12.4% and an inhibition at 10 µM [8] of 2.5%. It also gave an inhibition at 10 µM [9] of 2.7%, an inhibition at 10 µM [10] of 3.5% and an inhibition at 10 µM ([11]; CHO, read-out: % inhibition of reference agonist response @ 10 µM (antagonist effect), IB-MECA (10 nM)) of 8.5%. The “% of reference agonist response @ 10 µM (agonist effect)” value ([11]; reference IB-MECA (100 nM)) was 10.5%, the inhibition at 10 µM [12] was 25.9% and the “inhibition of binding or functional activity at most targets” value ([13]; 10 μM, most targets incl. bradykinin B1 and angiotensin AT1, except V1a, CRF1, EP1, TP, NK1) was < 50%. For the same molecule, the “agonism at V1a, CRF1, TP, NK1, NK3” value ([13]; full concentration-response curves, agonist mode) was “no agonism”, the inhibition at 10 µM [14] was 3.7% and the inhibition at 10 µM [15] was 21.7%. For the same molecule, the inhibition at 10 µM [16] was 4%, the “% of reference agonist response @ 10 µM (agonist effect)” value ([17]; 10 µM, reference ovine CRF (1 µM)) was -2.7% and the inhibition at 10 µM ([17]; CHO, read-out: % inhibition of reference agonist response @ 10 µM (antagonist effect), 10 µM, Ovine CRF (10 nM)) was 55.7%. For the same molecule, the IC50 ([17]; Ovine CRF (10 nM), read-out: IC50 (µM), functional antagonism) was 10 µM, the Kb ([17]; Ovine CRF (10 nM), read-out: Kb (µM), functional antagonism) was 3.6 µM and the inhibition at 10 µM [18] was 19%. It also gave an inhibition at 10 µM [19] of 4.8% and an inhibition at 10 µM [20] of 3.6%.
